Reference: patent publication US20030187048A1, “Method for inhibiting skin lesion formation using histamine as the active ingredient” (priority 1991, published 2003)
Values joined by “and” are separate entries in the source; they are usually repeats but may differ in a detail not shown here. Equal values may be shown once. Read-outs that look alike come from different tables or passages of the source.

Columns and labels:
[1] = test system: Giant Papillary Conjunctivitis
Method: The composition of the present invention includes initial preparation of a gel base by adding 0.8% CARBOPOL 940, which is a vinyl polymer, to distilled water. This mixture was allowed to stand for several hours until the polymer was wetted and a gel was formed. This mixture then was blended by means of a ordinary high speed mixer, such as a Lightning Labmaster II until a homogenous mixture is formed. At this point, a neutralizing and emulsifying agent such as an amino alcohol was added, forming an emulsion. […] This composition then was applied topically to various types of lesions, as subsequently described. […] Propylparaben or methylparaben may be used as a preservative. For “unidose” dispensers containing only two to three drops, no preservatives are used, as it is known that preservatives in ophthalmic solutions frequently cause undesirable side effects. The term semi-synthetic water soluble polymer as used herein includes hydroxy methylcellulose or carboxy methylcellulose. Carbopol is widely available in different viscosities.
Treatment consisted of topical ophthalmic application of both ophthalmic solution concentrations to their randomly assigned patients 2 times a day for 5 days. […] Each patient was clinically evaluated at 48 hours and 120 hours following the initiation of treatment for 2 parameters of tissue damage associated with Giant Papillary Conjunctivitis. In addition, each patient was asked to evaluate subjectively 2 symptoms associated with Giant Papillary conjunctivitis 48 hours and 120 hours after treatment initiation. The percent reduction from the initial presentation of each of the parameters of tissue damage and the initial presentation for each additional symptom evaluated was calculated from 48 and 120 hour post treatment initiation data.
Patients were randomly assigned to one of two active levels being evaluated.
Clinical evaluation was performed at 48 hours and 120 hours post treatment initiation. Each patient was asked to subjectively evaluate 2 additional symptoms associated with Giant Papillary Conjunctivitis by rating each symptom on a scale of 0 to 5 with 0 representing no evidence of symptom and 5 representing the greatest evidence of the symptom ever by the patient. Clinical evaluation of tissue damage parameters was also done using the same scale of 0 to 5. Patient compliance with the treatment regimen and the use of other medications was also evaluated.

[2] = test system: thermal burn injuries; conditions: for Height in mm of Blister / Height in mm of Swelling of Soft Tissue Surrounding Burn Site / Subjective Evaluation of Tenderness on Palpations (rated 0 to 5) / Zone of Erythema Surrounding Burn Site (mm): per burn site
[3] = test system: Photodermatitis (second degree sunburn); conditions: for Avg blister/hr: from count at 65 hours; for Discomfort on Lotion or Gel Application / General Discomfort: scored 1 (none) to 5 (worst)
Method: Treatment consisted of topical application of all lotion or gel concentrations to their respective, randomly assigned quadrants ever 30 minutes for the first 2 hours following the irradiation period, followed by lotion or gel or applications every hour for four hours, then lotion or gel applications three times a day until 65 hours elapsed post 2-z irradiation. Photographs were taken during the treatment period and upon the formation of identifiable blisters, the numbers of blisters in each quadrant were recorded at three times during-the treatment period with cessation of lotion or gel application and data collection at the 65 hours point as exfoliation (peeling) of the outer layers of the epidermis began at 70 hours.
Subjective evaluation involved an estimate of pain/discomfort following lotion or gel application in each quadrant as well as a comparative general discomfort level for each quadrant during the treatment period. Pain/discomfort was scored from 1 (none) to 5 (worst).

[4] = test system: herpes genitalis lesions; conditions: for Burning score / Local pain score: scale 0 to 5; for Reduction in Complete Healing Time: vs usual episode
Method: Treatment consisted of topical application three times a day for a period of five days. […] The percent reduction in complete healing time as compared to a usual episode was evaluated grouping the two patients who received active gel concentrations together and comparing to the two patients receiving placebo gel.
Each patient was contacted daily for 5 days for his or her estimate of the symptomatic relief of 6 common symptoms associated with genital herpes as well as the patient's interpretation of total healing of the episode. In an attempt to quantify responses, patients were asked to rate each symptom on a scale of 0 to 5 with 0 representing no evidence of the symptom and 5 representing the worst or most prominent evidence of the symptom ever for the patient. Subject compliance with the study regimen and the use of other medications was also assessed.

[5] = 0.0067% ophth soln, 48 hr, per patient
[6] = 0.0067% ophth soln, 120 hr, per patient
[7] = 0.0067% ophth soln, scale 0 to 5, per patient
[8] = 0.0045% gel, from greatest value of that burn site
[9] = 0.009% gel, from greatest value of that burn site
[10] = 0.0045% IEP, lower right quadrant
[11] = 0.0067% IEP, upper left quadrant

SMILES: NCCc1c[nH]cn1 [IEP, 1H-imidazole-4-ethanamine,phosphate]
- Exudation, Percent Reduction from Pre-Treatment Value [1, 5]: 50.0% and 75.0% and 100.0%
- Itch/Burn, Percent Reduction from Pre-Treatment Value [1, 5]: 75.0% and 80.0% and 100.0%
- Redness, Percent Reduction from Pre-Treatment Value [1, 5]: 50.0% and 66.67% and 100.0%
- Contact Lens Tolerance, Percent Reduction from Pre-Treatment Value [1, 6]: 100.0%
- Exudation, Percent Reduction from Pre-Treatment Value [1, 6]: 100.0%
- Itch/Burn, Percent Reduction from Pre-Treatment Value [1, 6]: 100.0%
- Redness, Percent Reduction from Pre-Treatment Value [1, 6]: 100.0%
- Conjunctival Injection (redness), Value at 120 Hours [1, 7]: 0
- Contact Lens Tolerance, Value at 120 hours [1, 7]: 0
- Exudation, Value at 120 Hours [1, 7]: 0
- Itching and Burning, Value at 120 hours [1, 7]: 0
- Difference in percent reduction of tissue damage parameters and symptoms vs placebo ophthalmic solution ([1]; 0.0067% ophthalmic solution, except contact lens tolerance at 48 hours): either significant (p<0.05) or highly significant (p<.O1)
- Decrease in size of the papilla ([1]; end of the 5 day treatment period, any of the patients): a significant decrease in size of the papilla was not noted
- Untoward effects ([1]; in vivo): no untoward effects
- Height in mm of Blister ([2]; 0.0045% gel, 3.5 hours): 3 mm and 2 mm
- Height in mm of Swelling of Soft Tissue Surrounding Burn Site ([2]; 0.0045% gel, 3.5 hours): 1 mm
- Subjective Evaluation of Tenderness on Palpations (rated 0 to 5) ([2]; 0.0045% gel, 3.5 hours): 3 and 5
- Zone of Erythema Surrounding Burn Site (mm) ([2]; 0.0045% gel, 3.5 hours): 8 mm and 4 mm
- Height in mm of Blister ([2]; 0.0045% gel, 8 hours): 2.5 mm and 1.5 mm
- Height in mm of Swelling of Soft Tissue Surrounding Burn Site ([2]; 0.0045% gel, 8 hours): 1 mm
- Subjective Evaluation of Tenderness on Palpations (rated 0 to 5) ([2]; 0.0045% gel, 8 hours): 2 and 4
- Zone of Erythema Surrounding Burn Site (mm) ([2]; 0.0045% gel, 8 hours): 6 mm and 3 mm
- Height in mm of Blister ([2]; 0.0045% gel, 22 hours): 1.5 mm and 1 mm
- Subjective Evaluation of Tenderness on Palpations (rated 0 to 5) ([2]; 0.0045% gel, 22 hours): 2 and 4
- % Reduction in Tissue Damage at 22 Hours: Height of Blister [2, 8]: 50.0%
- % Reduction in Tissue Damage at 22 Hours: Swelling of Surrounding Tissue [2, 8]: 100.0% and 50.0%
- % Reduction in Tissue Damage at 22 Hours: Zone of Erythema (mm) [2, 8]: 66.7% and 81.3%
- Height in mm of Blister ([2]; 0.009% gel, 3.5 hours): 2 mm
- Height in mm of Swelling of Soft Tissue Surrounding Burn Site ([2]; 0.009% gel, 3.5 hours): 1 mm
- Subjective Evaluation of Tenderness on Palpations (rated 0 to 5) ([2]; 0.009% gel, 3.5 hours): 2 and 3
- Zone of Erythema Surrounding Burn Site (mm) ([2]; 0.009% gel, 3.5 hours): 6 mm and 4 mm
- Height in mm of Blister ([2]; 0.009% gel, 8 hours): 1 mm
- Height in mm of Swelling of Soft Tissue Surrounding Burn Site ([2]; 0.009% gel, 8 hours): 0 mm
- Subjective Evaluation of Tenderness on Palpations (rated 0 to 5) ([2]; 0.009% gel, 8 hours): 2
- Zone of Erythema Surrounding Burn Site (mm) ([2]; 0.009% gel, 8 hours): 4 mm and 3 mm
- Height in mm of Swelling of Soft Tissue Surrounding Burn Site ([2]; 0.009% gel, 22 hours): 0 mm
- Subjective Evaluation of Tenderness on Palpations (rated 0 to 5) ([2]; 0.009% gel, 22 hours): 1
- Zone of Erythema Surrounding Burn Site (mm) ([2]; 0.009% gel, 22 hours): 2 mm
- % Reduction in Tissue Damage at 22 Hours: Height of Blister [2, 9]: 75.0% and 100.0%
- % Reduction in Tissue Damage at 22 Hours: Swelling of Surrounding Tissue [2, 9]: 100.0%
- % Reduction in Tissue Damage at 22 Hours: Tenderness on Palpation [2, 9]: 80.0%
- % Reduction in Tissue Damage at 22 Hours: Zone of Erythema (mm) [2, 9]: 77.8% and 75.0%
- Difference in tissue damage parameters vs placebo ([2]; 0.009% vs placebo, p<.O1 for 3 of the 4 parameters, fourth p<0.05): highly significant
- Untoward events or significant complications ([2]; in vivo): no untoward events or significant complications
- Total # of blisters at 42 hrs [3, 10]: 7
- Total # of blisters at 52 hrs [3, 10]: 7
- Total # of blisters at 65 hrs [3, 10]: 14
- Avg blister/hr [3, 10]: 0.215 blister/hr
- Discomfort on Lotion or Gel Application ([3]; 0.0045% lotion or gel): 2
- General Discomfort ([3]; 0.0045% lotion or gel): 1
- Total # of blisters at 52 hrs [3, 11]: 2
- Total # of blisters at 65 hrs [3, 11]: 10
- Avg blister/hr [3, 11]: 0.154 blister/hr
- Total # of blisters at 42 hrs ([3]; 0.0067% IEP, upper left quadrant, hours post irradiation): 2
- Discomfort on Lotion or Gel Application ([3]; 0.0067% lotion or gel): 1
- General Discomfort ([3]; 0.0067% lotion or gel): 1
- Treatment effect vs placebo, total rate of blister formation ([3]; active lotion or gel (0.0045% and 0.0067% combined), p<0.05): statistically significant treatment effect
- Untoward effects ([3]; in vivo): no untoward effects
- Burning score ([4]; 0.0275% IEP gel, day 1): 3
- Local pain score ([4]; 0.0275% IEP gel, day 1 of treatment): 3
- Burning score ([4]; 0.0275% IEP gel, day 2): 0
- Local pain score ([4]; 0.0275% IEP gel, day 2): 0
- Burning score ([4]; 0.0275% IEP gel, day 3): 0
- Local pain score ([4]; 0.0275% IEP gel, day 3): 0
- Burning score ([4]; 0.0275% IEP gel, day 4): 0
- Local pain score ([4]; 0.0275% IEP gel, day 4): 0
- Burning score ([4]; 0.0275% IEP gel, day 5): 0
- Local pain score ([4]; 0.0275% IEP gel, day 5): 0
- Healing Time ([4]; 0.0275% IEP gel, patient 603, usual healing time 7 days): 1 days
- Reduction in Complete Healing Time ([4]; 0.0275% IEP gel): 85%
- Burning score ([4]; […] IEP gel, day 1): 3
- Local pain score ([4]; […] IEP gel, day 1): 4
- Burning score ([4]; […] IEP gel, day 2): 1
- Local pain score ([4]; […] IEP gel, day 2): 2
- Burning score ([4]; […] IEP gel, day 3): 0
- Local pain score ([4]; […] IEP gel, day 3): 2
- Burning score ([4]; […] IEP gel, day 4): 0
- Local pain score ([4]; […] IEP gel, day 4): 0
- Burning score ([4]; […] IEP gel, day 5): 0
- Local pain score ([4]; […] IEP gel, day 5): 0
- Healing Time ([4]; […] IEP gel, patient 604, usual healing time 7 days): 3.5 days
- Reduction in Complete Healing Time ([4]; […] IEP gel): 50%
- Difference in percent reduction in complete healing time vs placebo ([4]; combined […] and 0.0275% groups, p<0.05): significant
- Untoward reactions ([4]; topical gel […], 0.0275%, three times a day for five days): no untoward reactions
